Assay results from ChEMBL document CHEMBL4007451, “The 2014 Philip S. Portoghese Medicinal Chemistry Lectureship: The "Phenylalkylaminome" with a Focus on Selected Drugs of Abuse” (J Med Chem, 2017).

Key:
[1] = target: Sodium-dependent serotonin transporter (Rattus norvegicus, UniProt P31652); test: Activity at SERT in rat synaptosomes assessed as release of [3H]HT after 5 mins by liquid scintillation counting method; format: subcellular
Rattus norvegicus [2] = species on record: Rattus norvegicus; test: Induction of stimulus generalization in rat trained to discriminate PMMA assessed as appropriate responding level to training drug by two lever method; format: functional; conditions: for ED50: Rattus norvegicus
[3] = Activity at NET in rat synaptosomes assessed as release of [3H]NE after 30 mins by liquid scintillation counting method; format: subcellular
[4] = target: Sodium-dependent dopamine transporter (Rattus norvegicus, UniProt P23977); test: Activity at DAT in rat synaptosomes assessed as release of [3H]DA after 5 mins by liquid scintillation counting method; format: subcellular
[5] = Displacement of [3H]ketanserin from rat brain 5HT2 receptor
Rattus norvegicus [6] = species on record: Rattus norvegicus; test: Induction of stimulus generalization in rat trained to discriminate DOM assessed as appropriate responding level to training drug by two lever method; format: functional
Rattus norvegicus [7] = species on record: Rattus norvegicus; test: Induction of stimulus generalization in Sprague-Dawley rat trained to discriminate DOM assessed as appropriate responding level to training drug by two lever method; format: functional; conditions: Rattus norvegicus, Sprague-Dawley
Rattus norvegicus [8] = species on record: Rattus norvegicus; test: Induction of stimulus generalization in Sprague-Dawley rat trained to discriminate alpha-ET assessed as appropriate responding level to training drug by two lever method; format: functional; conditions: Rattus norvegicus, Sprague-Dawley
[9] = target: Sodium-dependent serotonin transporter (Homo sapiens, UniProt P31645); test: Activity at SERT (unknown origin) assessed as release of [3H]HT
Homo sapiens = species on record: Homo sapiens; test: Selectivity ratio of EC50 for SERT (unknown origin) assessed as release of [3H]HT to EC50 for DAT (unknown origin) by [3H]DA release assay
[10] = target: Sodium-dependent dopamine transporter (Homo sapiens, UniProt Q01959); test: Activity at DAT (unknown origin) assessed as release of [3H]DA
Mus musculus = test: Anxiolytic-like activity in iv dosed ICR mouse assessed as increase in marbles left uncovered measured after 30 mins by marble burying assay; format: functional; conditions: 0.5 h
[11] = target: T1, 5-hydroxytryptamine receptor 1A (Rattus norvegicus, UniProt P19327); test: Displacement of [3H]-8-OH-DPAT from 5-HT1A receptor in Sprague-Dawley rat cortex membranes after 15 mins by liquid scintillation spectrometric method; format: cell membranes
T1 sequence (P19327 whole entry): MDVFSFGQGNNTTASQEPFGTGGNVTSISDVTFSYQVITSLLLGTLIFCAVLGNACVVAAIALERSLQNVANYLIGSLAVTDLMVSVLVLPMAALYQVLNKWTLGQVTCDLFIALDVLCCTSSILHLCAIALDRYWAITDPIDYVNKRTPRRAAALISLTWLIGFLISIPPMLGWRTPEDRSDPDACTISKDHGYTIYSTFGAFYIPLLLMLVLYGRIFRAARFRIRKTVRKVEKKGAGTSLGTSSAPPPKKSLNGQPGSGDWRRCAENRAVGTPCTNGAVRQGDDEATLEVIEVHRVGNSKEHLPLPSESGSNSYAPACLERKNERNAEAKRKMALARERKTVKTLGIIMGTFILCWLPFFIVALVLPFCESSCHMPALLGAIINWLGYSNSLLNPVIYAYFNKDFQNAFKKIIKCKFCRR

[12] = target: Sigma non-opioid intracellular receptor 1 (Cavia porcellus, UniProt Q60492); test: Displacement of (+)-[3H]pentazocine from guinea pig brain membrane sigma1 receptor by scintillation spectrometric method
Rattus norvegicus [13] = species on record: Rattus norvegicus; test: Induction of stimulus generalization in rat trained to discriminate MDMA assessed as appropriate responding level to training drug by two lever method; format: functional; conditions: Rattus norvegicus
[14] = Displacement of [3H]DTG from sigma receptor (unknown origin); parameters: species or system Homo sapiens
Rhesus monkey = test: In vivo agonist activity at 5HT2A in DOM-trained rhesus monkey assessed as increase in discriminative stimulus administered subcutaneously pretreated before testing; format: functional; conditions: Macaca mulatta, sc
Rattus norvegicus [15] = test: In vivo agonist activity at 5HT2A in ip dosed DOM-trained Sprague-Dawley rat assessed as increase in discriminative stimulus pretreated before testing; format: functional
Rattus norvegicus [16] = species on record: Rattus norvegicus; test: Induction of stimulus generalization in rat trained to discriminate (+)amphetamine assessed as appropriate responding level to training drug by two lever method; format: functional
[17] = target: 5-hydroxytryptamine receptor 2A (Homo sapiens, UniProt P28223); test: Displacement of [125I]DOI from recombinant human 5HT2A expressed in Syrian hamster AV12 cell membranes
Rattus norvegicus [18] = species on record: Rattus norvegicus; test: Induction of stimulus generalization in Sprague-Dawley rat trained to discriminate PMMA assessed as appropriate responding level to training drug by two lever method; format: functional
Rattus norvegicus [19] = species on record: Rattus norvegicus; test: Induction of stimulus generalization in Sprague-Dawley rat trained to discriminate MDMA assessed as appropriate responding level to training drug by two lever method; format: functional; conditions: Rattus norvegicus, Sprague-Dawley
Rattus norvegicus [20] = species on record: Rattus norvegicus; test: Induction of stimulus generalization in rat trained to discriminate S(+)methamphetamine assessed as appropriate responding level to training drug by two lever method; format: functional
Rattus norvegicus [21] = species on record: Rattus norvegicus; test: Induction of stimulus generalization in rat trained to discriminate (-)ephedrine assessed as appropriate responding level to training drug by two lever method; format: functional
[22] = target: 5-hydroxytryptamine receptor 2A (Rattus norvegicus, UniProt P14842); test: Displacement of [3H]ketanserin from 5HT2A in Sprague-Dawley rat frontal cortex membranes measured after 15 mins by scintillation counting method; parameters: species or system Membrane
Sequence of 5-hydroxytryptamine receptor 2A (Rattus norvegicus, UniProt P14842) (P14842 whole entry): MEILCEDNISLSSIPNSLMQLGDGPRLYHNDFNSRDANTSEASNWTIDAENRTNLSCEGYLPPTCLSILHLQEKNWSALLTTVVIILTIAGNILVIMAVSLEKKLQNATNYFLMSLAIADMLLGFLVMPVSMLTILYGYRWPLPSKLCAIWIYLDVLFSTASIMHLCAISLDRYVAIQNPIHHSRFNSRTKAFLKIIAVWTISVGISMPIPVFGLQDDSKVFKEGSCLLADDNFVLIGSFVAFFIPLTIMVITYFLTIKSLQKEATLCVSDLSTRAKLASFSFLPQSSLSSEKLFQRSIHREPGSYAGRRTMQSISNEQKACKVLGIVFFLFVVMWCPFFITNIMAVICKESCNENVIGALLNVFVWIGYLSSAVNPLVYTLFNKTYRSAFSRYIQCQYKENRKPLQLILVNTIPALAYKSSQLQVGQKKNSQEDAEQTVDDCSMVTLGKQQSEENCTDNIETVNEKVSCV

Sequence of Sodium-dependent serotonin transporter (Homo sapiens, UniProt P31645) (P31645 whole entry): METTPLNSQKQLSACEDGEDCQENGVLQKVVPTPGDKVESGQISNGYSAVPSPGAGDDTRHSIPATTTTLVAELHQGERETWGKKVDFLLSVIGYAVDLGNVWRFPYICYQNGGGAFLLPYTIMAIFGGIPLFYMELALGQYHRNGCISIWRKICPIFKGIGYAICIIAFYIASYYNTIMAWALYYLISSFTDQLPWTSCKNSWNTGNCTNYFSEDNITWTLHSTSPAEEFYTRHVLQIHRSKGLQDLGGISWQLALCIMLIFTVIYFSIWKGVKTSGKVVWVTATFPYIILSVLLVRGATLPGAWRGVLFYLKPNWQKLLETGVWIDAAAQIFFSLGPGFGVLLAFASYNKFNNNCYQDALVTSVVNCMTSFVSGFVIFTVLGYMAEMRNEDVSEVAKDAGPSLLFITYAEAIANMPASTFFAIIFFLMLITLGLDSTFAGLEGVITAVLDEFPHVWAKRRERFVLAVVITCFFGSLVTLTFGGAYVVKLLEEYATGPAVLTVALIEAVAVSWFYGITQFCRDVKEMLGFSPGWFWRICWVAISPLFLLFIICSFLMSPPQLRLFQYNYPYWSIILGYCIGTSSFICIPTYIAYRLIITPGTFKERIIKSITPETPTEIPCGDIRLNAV
Sequence of Sodium-dependent dopamine transporter (Homo sapiens, UniProt Q01959) (Q01959 whole entry): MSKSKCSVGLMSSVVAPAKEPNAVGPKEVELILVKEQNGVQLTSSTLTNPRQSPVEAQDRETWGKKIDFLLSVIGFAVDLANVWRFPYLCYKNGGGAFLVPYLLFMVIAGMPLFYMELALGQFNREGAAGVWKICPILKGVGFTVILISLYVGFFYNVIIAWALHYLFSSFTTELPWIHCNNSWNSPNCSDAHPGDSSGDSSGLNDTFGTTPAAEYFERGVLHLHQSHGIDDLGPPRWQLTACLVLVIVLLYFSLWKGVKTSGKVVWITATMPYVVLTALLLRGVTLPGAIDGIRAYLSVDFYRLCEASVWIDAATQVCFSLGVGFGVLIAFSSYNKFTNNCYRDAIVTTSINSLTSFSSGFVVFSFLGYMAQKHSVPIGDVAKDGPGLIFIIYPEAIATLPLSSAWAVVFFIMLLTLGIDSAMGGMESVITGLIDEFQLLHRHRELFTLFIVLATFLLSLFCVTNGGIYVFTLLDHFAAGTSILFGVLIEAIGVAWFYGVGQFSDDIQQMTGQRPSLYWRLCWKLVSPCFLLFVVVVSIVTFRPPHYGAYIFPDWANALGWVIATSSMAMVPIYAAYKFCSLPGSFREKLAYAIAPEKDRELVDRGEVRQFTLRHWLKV
Sequence of Sodium-dependent serotonin transporter (Rattus norvegicus, UniProt P31652) (P31652 whole entry): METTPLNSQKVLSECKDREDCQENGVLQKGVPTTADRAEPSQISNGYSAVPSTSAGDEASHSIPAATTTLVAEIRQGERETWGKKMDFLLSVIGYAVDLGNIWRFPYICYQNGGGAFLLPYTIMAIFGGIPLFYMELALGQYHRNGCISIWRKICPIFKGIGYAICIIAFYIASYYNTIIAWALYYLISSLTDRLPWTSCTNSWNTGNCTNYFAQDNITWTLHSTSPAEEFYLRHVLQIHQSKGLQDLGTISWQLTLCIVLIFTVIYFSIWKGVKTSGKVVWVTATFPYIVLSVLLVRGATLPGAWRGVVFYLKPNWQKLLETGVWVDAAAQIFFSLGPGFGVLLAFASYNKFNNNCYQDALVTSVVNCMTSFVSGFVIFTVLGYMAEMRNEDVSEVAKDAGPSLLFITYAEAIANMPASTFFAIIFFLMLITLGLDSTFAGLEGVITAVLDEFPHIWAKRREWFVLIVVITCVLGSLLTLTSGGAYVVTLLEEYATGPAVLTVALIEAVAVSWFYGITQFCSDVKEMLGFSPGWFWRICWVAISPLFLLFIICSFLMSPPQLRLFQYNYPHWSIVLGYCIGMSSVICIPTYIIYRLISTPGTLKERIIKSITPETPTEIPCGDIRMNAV
Sequence of Sigma non-opioid intracellular receptor 1 (Q60492 whole entry): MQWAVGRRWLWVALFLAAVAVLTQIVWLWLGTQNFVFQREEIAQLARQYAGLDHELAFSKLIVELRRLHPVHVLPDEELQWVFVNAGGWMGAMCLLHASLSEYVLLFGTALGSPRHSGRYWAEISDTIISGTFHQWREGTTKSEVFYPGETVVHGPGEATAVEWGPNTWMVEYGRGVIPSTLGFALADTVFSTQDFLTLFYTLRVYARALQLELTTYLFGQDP
Sequence of Sodium-dependent dopamine transporter (Rattus norvegicus, UniProt P23977) (P23977 whole entry): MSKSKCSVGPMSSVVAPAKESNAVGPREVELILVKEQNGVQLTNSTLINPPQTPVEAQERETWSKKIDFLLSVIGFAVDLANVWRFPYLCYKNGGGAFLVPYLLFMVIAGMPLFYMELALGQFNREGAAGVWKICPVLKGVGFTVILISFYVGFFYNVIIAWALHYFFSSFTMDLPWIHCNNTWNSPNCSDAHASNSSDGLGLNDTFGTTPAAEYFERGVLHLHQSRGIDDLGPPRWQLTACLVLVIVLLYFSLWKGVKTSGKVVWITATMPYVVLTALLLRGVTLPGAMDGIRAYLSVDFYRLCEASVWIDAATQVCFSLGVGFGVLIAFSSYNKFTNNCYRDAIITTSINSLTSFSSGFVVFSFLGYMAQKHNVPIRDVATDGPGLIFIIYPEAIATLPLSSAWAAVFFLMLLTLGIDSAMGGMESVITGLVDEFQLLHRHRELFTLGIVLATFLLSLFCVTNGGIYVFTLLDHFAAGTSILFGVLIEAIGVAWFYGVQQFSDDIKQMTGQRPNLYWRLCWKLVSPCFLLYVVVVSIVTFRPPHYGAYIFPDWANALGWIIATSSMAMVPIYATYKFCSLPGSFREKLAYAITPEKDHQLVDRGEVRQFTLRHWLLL
Sequence of 5-hydroxytryptamine receptor 2A (Homo sapiens, UniProt P28223) (P28223 whole entry): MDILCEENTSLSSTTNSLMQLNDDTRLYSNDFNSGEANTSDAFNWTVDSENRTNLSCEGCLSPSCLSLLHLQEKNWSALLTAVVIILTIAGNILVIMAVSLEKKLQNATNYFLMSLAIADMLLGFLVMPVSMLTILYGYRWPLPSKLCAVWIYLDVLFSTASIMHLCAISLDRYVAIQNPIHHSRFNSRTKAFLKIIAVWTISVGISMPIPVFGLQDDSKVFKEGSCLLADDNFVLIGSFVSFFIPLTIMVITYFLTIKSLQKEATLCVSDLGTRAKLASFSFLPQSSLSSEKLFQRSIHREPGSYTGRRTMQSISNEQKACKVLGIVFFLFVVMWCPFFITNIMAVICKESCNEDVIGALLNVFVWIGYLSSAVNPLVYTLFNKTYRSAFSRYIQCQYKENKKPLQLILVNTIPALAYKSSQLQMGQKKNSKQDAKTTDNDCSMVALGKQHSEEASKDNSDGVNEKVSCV

## C[C@H](N)Cc1ccc2c(c1)OCO2
[1]
  EC50: 100 nM
Rattus norvegicus [2]
  ED50: 0.7 mg/kg
[3]
  EC50: 50 nM
[4]
  EC50: 98 nM

## C[C@H](N)Cc1c[nH]c2ccccc12
[5]
  Ki: 2.5 µM
Rattus norvegicus [6]
  ED50: 1.64 mg/kg

## COc1cc(CC(C)N)c(OC)cc1C (stereo not drawn) [DOM]
Rattus norvegicus [7]
  ED50: 0.4 mg/kg
Rattus norvegicus [6]
  ED50: 0.44 mg/kg
Rattus norvegicus [8]
  ED50: 0.4 mg/kg

## CNC(C)C(=O)c1ccc(C)cc1 (stereo not drawn) [MEPHEDRONE]
[9]
  EC50: 118 nM
Homo sapiens
  Ratio EC50: 2.5
[10]
  EC50: 49.1 nM

## CN1C(=O)CN=C(c2ccccc2)c2cc(Cl)ccc21 [DIAZEPAM]
Mus musculus
  ED50: 0.26 mg/kg

## CN(C)[C@@H]1CCc2cccc(O)c2C1
[11]
  Ki: 75 nM

## c1ccc(CCCCCN2CCCCC2)cc1
[12]
  Ki: 0.38 nM

## COc1ccc(C[C@H](C)N)cc1OC
Rattus norvegicus [2]
  ED50: 2.6 mg/kg
Rattus norvegicus [13]
  ED50: 6.1 mg/kg

## C=CCN1CCC2(C)c3cc(O)ccc3CC1C2C (racemic)
[14]
  Ki: 430 nM

## CNC(C)C(=O)c1ccccc1 (stereo not drawn)
[9]
  EC50: 3860 nM
Homo sapiens
  Ratio EC50: > 200
[10]
  EC50: 12.5 nM

## c1ccc(CCCCCN2CCCCC2Cc2ccccc2)cc1 (stereo not drawn)
[12]
  Ki: 0.08 nM

## COc1cc(C[C@@H](C)N)c(OC)cc1I
Rhesus monkey
  ED50: 0.04 mg/kg
Rattus norvegicus [15]
  ED50: 0.2 mg/kg

## CC(N)C(=O)c1ccccc1 (racemic) [DEALKYLATED DIETHYLPROPION]
Rattus norvegicus [16]
  ED50: 0.72 mg/kg

## C[C@@H](N)Cc1c[nH]c2ccccc12
[5]
  Ki: 5 µM

## C[C@H](Cc1ccccc1)NCCCCCc1ccccc1
[12]
  Ki: 0.5 nM

## C[C@@H](Cc1ccccc1)NCCCCCc1ccccc1
[12]
  Ki: 0.9 nM

## CCCNC(C)Cc1cc(OC)c(Br)cc1OC (stereo not drawn)
[17]
  Ki: 88.5 nM

## c1ccc(CCCCCN2CCCC(c3ccccc3)C2)cc1 (stereo not drawn)
[12]
  Ki: 0.14 nM

## CC1CCN(CCCCCc2ccccc2)CC1
[12]
  Ki: 0.07 nM

## CNC(C)Cc1ccc2c(c1)OCO2 (racemic) [MIDOMAFETAMINE]
[1]
  EC50: 72 nM
Rattus norvegicus [2]
  ED50: 1.32 mg/kg
[3]
  EC50: 110 nM
[4]
  EC50: 278 nM

## CNC(C)C(=O)c1ccc(C(F)(F)F)cc1 (stereo not drawn)
[9]
  EC50: 190 nM
Homo sapiens
  Ratio EC50: 14
[10]
  EC50: 2700 nM

## CNC(C)Cc1ccc(OC)cc1 (stereo not drawn)
Rattus norvegicus [8]
  ED50: 0.7 mg/kg
Rattus norvegicus [18]
  ED50: 0.4 mg/kg
Rattus norvegicus [19]
  ED50: 0.2 mg/kg

## CC(N)Cc1c[nH]c2ccccc12 (stereo not drawn)
[5]
  Ki: 3.1 µM
Rattus norvegicus [6]
  ED50: 3.1 mg/kg

## CN[C@H](C)Cc1ccccc1
Rattus norvegicus [20]
  ED50: 1.61 mg/kg
Rattus norvegicus [21]
  ED50: 0.9 mg/kg

## CCCCN(CCCC)[C@@H]1CCc2cccc(O)c2C1
[11]
  Ki: 109 nM

## COc1cccc(C[C@@H](C)N)c1
Rattus norvegicus [2]
  Activity: 20 - 80%
Rattus norvegicus [13]
  ED50: 1.4 mg/kg

## CN[C@H](C)Cc1ccc2c(c1)OCO2
[1]
  EC50: 340 nM
[3]
  EC50: 560 nM
[4]
  EC50: 3700 nM
[22]
  Ki: 3.31 µM

## CCCCCCN(C)CCc1ccccc1
[12]
  Ki: 48 nM
